The numbers were not newly measured in US9533050B2, “Vaginal ring including meloxicam and an agent for modulating the release of the active principle, which can be used as a continuous-use contraceptive in women” (LABORATORIOS ANDROMACO S.A., priority 2011, dated 2017), which cites them from elsewhere.

In data set [1] the test system is ovulation. The following applies: women.
In data set [2] the test system is follicular rupture. The following applies: 25 mg oral once daily for 9 days.
The mark [3] stands for this setting: 15 mg tablets orally, older women.

As to `COc1ccc2c(c1)c(CC(=O)O)c(C)n2C(=O)c1ccc(Cl)cc1` [Indomethacin, indomethacin], in data set [1], the delay of ovulation is 2 to 12 days.
Turning to `Cc1cnc(NC(=O)C2=C(O)c3ccccc3S(=O)(=O)N2C)s1` [meloxicam], under “7.5 mg orally, tablets”, the maximum plasma concentrations is 1.05 µg/mL and the “time of maximum plasma concentration” value is 4.9 h. For the same molecule, under setting [3], the plasma concentrations is 3200 ng/mL and the “time of plasma concentration” value was 6 h.
With `CS(=O)(=O)c1ccc(C2=C(c3ccccc3)C(=O)OC2)cc1` [rofecoxib], in data set [2], the inhibition of ovulation entry is “not sufficient to inhibit ovulation” and the “women with delay in the late follicular rupture” value is 4 of the 6.
